From US20230248731A1, “COMPOSITION AND MEDICAMENT OF PALBOCICLIB ISETHIONATE” (NANJING GRITPHARMA CO., LTD., priority 2020, published 2023)

Legend:
[1] = background statement; cited from earlier work
[2] = Pharmacokinetics of palbociclib isethionate after single oral administration in 125 mg (Pfizer study 1036); type: in vivo, human; conditions: single oral 125 mg
Experimental: Existing clinical tests have also shown that the palbociclib isethionate has different bioavailability values before or after a meal. Pharmacokinetics of the palbociclib isethionate in healthy subjects after single administration were evaluated by Pfizer Pharmaceutical, an original research company. Different effects are achieved when the medicine is taken before or after a meal. Compared with administration before a meal, administration after a meal has the advantages that the Cmax value is increased by 7%, and the AUCinf value is increased by about 9%. The food prolongs the retention time of the medicine in the gastric juice, so that the bioavailability is improved. The basic reason is that as the pH environment in the stomach and intestines is different, the palbociclib isethionate has inconsistent dissolution and release conditions, resulting in different bioavailability values. Therefore, when the dissolution of the palbociclib isethionate can be improved under neutral and weakly alkaline conditions, great benefits will be brought to application of the palbociclib isethionate to the treatment of related diseases in the human body.

[3] = Solubility of palbociclib isethionate at different pH values; type: physicochemical
Excerpt: First, the applicant has studied the solubility of palbociclib isethionate in water, a hydrochloric acid solution with a pH of 1.0, a phosphate buffer with a pH of 6.8 and an acetate buffer with a pH of 4.5 (as shown in Table 3). […] However, the palbociclib isethionate enters the intestinal tract rapidly on an empty stomach, and the pH environment becomes neutral and weakly alkaline. As the solubility of the palbociclib isethionate is extremely low at a pH of 6.8, absorption of the palbociclib isethionate will be affected by the solubility, which is extremely unfavorable to the absorption and utilization of the palbociclib isethionate.

Increase of AUCinf, administration after a meal compared with before a meal [2]	Increase of Cmax, administration after a meal compared with before a meal [2] [%]	Solubility ([3]; acetate buffer pH 4.5) [mg/mL]	Solubility ([3]; hydrochloric acid solution pH 1.0) [mg/mL]	Solubility (in words) ([3]; pH 6.8)	Solubility ([3]; phosphate buffer pH 6.8) [mg/mL]	Solubility ([3]; water) [mg/mL]	Compound	Solubility in water (in words) [1]
–	–	–	–	–	–	–	CC(=O)c1c(C)c2cnc(Nc3ccc(N4CCNCC4)cn3)nc2n(C2CCCC2)c1=O [palbociclib in a free alkali form, palbociclib]	poor solubility in water
about 9%	7	84.7	90.7	extremely low	0.04	84.8	CC(=O)c1c(C)c2cnc(Nc3ccc(N4CCNCC4)cn3)nc2n(C2CCCC2)c1=O.O=S(=O)(O)CCO [palbociclib isethionate]	–
